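Tested at 5 concentrations; 48 h exposure; 96-well plates; endpoints linearly interpolated, else capped at highest concentration. GI50 marks 50% less growth.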 The source made the active and inactive calls. Rule as the data show it: active = GI50 up to about 1.1 µM and inactive = higher.
Key:
Assay in all cases: DTP human tumour cell line panel, 48 h
DMS-273 = tested on: DMS-273
XF498 = tested on: XF498
SNB-78 = tested on: SNB-78
KM-20L2 = tested on: KM-20L2
HOP-18 = tested on: HOP-18
LXFL 529 = tested on: LXFL 529
DLD-1 = tested on: DLD-1
DMS-114 = tested on: DMS-114
RXF 631 = tested on: RXF 631

SMILES | GI50 (DMS-273) | GI50 (XF498) | GI50 (SNB-78) | GI50 (KM-20L2) | GI50 (HOP-18) | GI50 (LXFL 529) | GI50 (DLD-1) | GI50 (DMS-114) | GI50 (RXF 631)
COc1cccc2[s+]snc12 | 53.2 µM (inactive) | 18.8 µM (inactive) | 38.7 µM (inactive) | > 100 µM (inactive) | 41.3 µM (inactive) | 43.3 µM (inactive) | 35.6 µM (inactive) | – | –
O=C(/C=C/c1ccccc1)CC1OC(=O)c2ccccc21 (stereo unspecified) | > 100 µM (inactive) | > 100 µM (inactive) | – | > 100 µM (inactive) | 14.9 µM (inactive) | 46.7 µM (inactive) | > 100 µM (inactive) | 46.3 µM (inactive) | –
COC(=O)C12CCC(CC1=O)C2(C)C (stereo unspecified) | > 100 µM (inactive) | > 100 µM (inactive) | – | > 100 µM (inactive) | > 100 µM (inactive) | – | > 100 µM (inactive) | 99.5 µM (inactive) | –
N#CC1CC(c2ccccc2)Nc2cc(Cl)ccc2N1 (stereo unspecified) | 31.2 µM (inactive) | 29.7 µM (inactive) | 50.7 µM (inactive) | 43.7 µM (inactive) | > 87.1 µM (inactive) | 21 µM (inactive) | 28.9 µM (inactive) | 5.78 µM (inactive) | –
C#CCC(O)c1ccccc1C(O)CC#C (stereo unspecified) | > 100 µM (inactive) | – | 77.8 µM (inactive) | > 100 µM (inactive) | – | > 100 µM (inactive) | > 100 µM (inactive) | > 100 µM (inactive) | –
Cc1cc(N(CCC#N)CCC#N)ccc1/C=C1N=C(/C=C\c2ccccc2)N(NC(=O)CC(=O)Nc2ccccc2Cl)C\1=O | – | – | – | > 100 µM (inactive) | > 100 µM (inactive) | > 100 µM (inactive) | > 100 µM (inactive) | > 100 µM (inactive) | > 100 µM (inactive)
CN(Cc1cnc2nc(N)nc(N)c2n1)c1ccc(C(=O)NC(CCC(=O)O)C(=O)O)c2ccccc12 (stereo unspecified) | 0.01 µM (active) | > 100 µM (inactive) | > 65 µM (inactive) | 0.01 µM (active) | > 100 µM (inactive) | 0.00135 µM (active) | 0.01 µM (active) | 0.000847 µM (active) | –
C=CCC12CCC(=O)C=C1CCC1(C2)OCCO1 (stereo unspecified) | > 100 µM (inactive) | – | > 100 µM (inactive) | > 100 µM (inactive) | > 100 µM (inactive) | > 100 µM (inactive) | > 100 µM (inactive) | > 100 µM (inactive) | > 100 µM (inactive)
O=C1C(=O)N(c2ccc(Cl)cc2)C(=O)C(=O)C1c1nc2ccccc2s1 | > 100 µM (inactive) | > 100 µM (inactive) | > 100 µM (inactive) | > 100 µM (inactive) | > 100 µM (inactive) | > 100 µM (inactive) | – | > 100 µM (inactive) | –
CC1=C(C(=O)Nc2cccc(Cl)c2)C(c2ccccc2O)C(C(=O)Nc2cccc(Cl)c2)=C(C)N1 | – | – | 24.5 µM (inactive) | 18.4 µM (inactive) | – | 21.8 µM (inactive) | 18.4 µM (inactive) | 22.4 µM (inactive) | –
CCOP(=O)(OCC)OC(C#N)c1ccc(-c2ccccc2)cc1 (stereo unspecified) | 14.4 µM (inactive) | 23.9 µM (inactive) | 33 µM (inactive) | 41.3 µM (inactive) | 27.7 µM (inactive) | 17.8 µM (inactive) | 18.4 µM (inactive) | 15 µM (inactive) | –
COc1ccc(/C=C\c2cc(OC)c(O[Si](C)(C)C(C)(C)C)c(OC)c2)cc1 | 44.4 µM (inactive) | 22.6 µM (inactive) | – | 45.3 µM (inactive) | – | 33.7 µM (inactive) | 45.3 µM (inactive) | 20.3 µM (inactive) | 45.8 µM (inactive)
CC(C)(C)C(=O)C1CC(=O)c2ccccc2C1=O (stereo unspecified) | – | 34.4 µM (inactive) | 27.5 µM (inactive) | 38 µM (inactive) | 37.5 µM (inactive) | – | 30.4 µM (inactive) | 33.9 µM (inactive) | 36.7 µM (inactive)
CC(=O)OC1CC2(c3ccccc3)C(=O)c3ccccc3N2O1 (stereo unspecified) | > 100 µM (inactive) | > 100 µM (inactive) | > 100 µM (inactive) | > 100 µM (inactive) | > 100 µM (inactive) | > 100 µM (inactive) | > 100 µM (inactive) | > 100 µM (inactive) | –
NN1C(=O)C(CCO)S/C1=N/N=C1/SC(CCO)C(=O)N1N (stereo unspecified) | – | 16.1 µM (inactive) | > 100 µM (inactive) | > 100 µM (inactive) | > 100 µM (inactive) | > 100 µM (inactive) | > 100 µM (inactive) | > 100 µM (inactive) | –
Oc1ccc2ccccc2c1/N=N/c1ccc(F)cc1 | > 100 µM (inactive) | – | – | > 100 µM (inactive) | > 100 µM (inactive) | > 100 µM (inactive) | – | > 100 µM (inactive) | –
COc1cc(-c2c(C)c(C)nc(OC)c2C#N)cc(OC)c1OC | – | – | 92 µM (inactive) | > 100 µM (inactive) | 46.1 µM (inactive) | 41.9 µM (inactive) | > 100 µM (inactive) | 49.8 µM (inactive) | –
N#CC(C#N)c1ccc(C(=O)N2CCC[C@H]2CO)cc1 | > 100 µM (inactive) | – | – | > 100 µM (inactive) | > 100 µM (inactive) | > 100 µM (inactive) | > 100 µM (inactive) | > 100 µM (inactive) | > 100 µM (inactive)
COCCN1C2=CCCCC2=Nc2c1nc(N)[nH]c2=O | > 100 µM (inactive) | > 100 µM (inactive) | > 100 µM (inactive) | > 100 µM (inactive) | > 100 µM (inactive) | > 100 µM (inactive) | > 100 µM (inactive) | > 100 µM (inactive) | > 100 µM (inactive)
CCCC1N2CCCCC2[C@@H]2c3[nH]c4ccccc4c3CCN12 (stereo partly specified) | > 100 µM (inactive) | > 100 µM (inactive) | 53.8 µM (inactive) | > 100 µM (inactive) | > 100 µM (inactive) | > 100 µM (inactive) | > 100 µM (inactive) | > 100 µM (inactive) | –
O=c1cccccc1NCCCCCCCCCNc1cccccc1=O | 12.5 µM (inactive) | 7.36 µM (inactive) | 17.1 µM (inactive) | 19.6 µM (inactive) | – | 8.97 µM (inactive) | 10.8 µM (inactive) | 1.35 µM (inactive) | –
CC1(C)COC(c2cccnc2/C=N/O)=N1 | > 100 µM (inactive) | > 100 µM (inactive) | > 100 µM (inactive) | > 100 µM (inactive) | > 100 µM (inactive) | > 100 µM (inactive) | > 100 µM (inactive) | – | > 100 µM (inactive)
O=C(O)[C@@H]1OCCOCCO[C@@H](C(=O)O)[C@H](C(=O)O)OCCOCCO[C@H]1C(=O)O | > 100 µM (inactive) | > 30.3 µM (inactive) | > 100 µM (inactive) | > 100 µM (inactive) | > 100 µM (inactive) | > 100 µM (inactive) | > 42.1 µM (inactive) | > 50.8 µM (inactive) | –
N#CC(C(=O)C(N)=O)c1ccccc1Cl (stereo unspecified) | > 100 µM (inactive) | > 100 µM (inactive) | – | > 100 µM (inactive) | > 100 µM (inactive) | > 100 µM (inactive) | > 100 µM (inactive) | > 100 µM (inactive) | > 100 µM (inactive)

— ChEMBL document CHEMBL1201862, “PubChem BioAssay data set” (2004)
